Experimental data from US8198321B2, “Anti-microorganism terpenic composition” (priority 2006, dated 2012).

Legend:
HIV-1Bal (R5-tropic) [1] = test: Test for inhibition of macrophage infection; type: cell-based
Excerpt: (§1) In order to carry out cytotoxicity and infection-inhibiting activity tests, three cell types and two viral strains were used. This involved a laboratory strain HIV-1NDK(X4-tropic) which was amplified by lymphocytes originating from healthy donors, and a primary strain HIV-1Bal (R5-tropic) which was amplified by macrophages.
(§2) As regards the cell types, macrophages and dendritic cells were obtained from peripheral blood mononuclear cells. In addition, lymphocytes were provided.
(§3) As regards the inhibitory activity, the macrophages or the dendritic cells are incubated with viral particles of the abovementioned strains, HIV-1NDK(X4-tropic) or HIV-1Bal (R5-tropic), in the presence and absence of the terpenic compositions. The cells are subsequently washed and then put back in culture and, finally, centrifuged. The supernatants are then recovered and the viral particles are lyzed in order to measure the concentration of a viral protein using the ELISA assay. In this way, the inhibitory activity of the terpenic compositions is evaluated by comparison between the nontreated infected cells and the treated infected cells.
(§4) Next, the inhibition of the infection of the macrophages was evaluated. Since the latter are potential reservoirs for HIV, it is a question of measuring the ability of the terpenic composition to prevent infection of the macrophages.

HIV-1NDK (X4-tropic) [2] = test: Test for inhibition of dendritic cell infection; type: cell-based
Excerpt: as §1, §2, §3
(§5) Furthermore, tests were carried out on the inhibition of dendritic cell infection, since these cells are involved in HIV transmission at the mucosal level.

HIV-1Bal (R5-tropic) [3] = test: Test for inhibition of dendritic cell infection; type: cell-based
Excerpt: as §1, §2, §3, §5

HIV-1NDK (X4-tropic) [4] = test: Test for inhibition of macrophage infection; type: cell-based
Excerpt: as §1, §2, §3, §4

X4 strains = test: Direct activity on X4 strains (noninfectious / detergent activity); set-up: species or system HIV-1; conditions: diluted to 1/100th
HIV-1NDK (X4-tropic) [5] = test: Test for inhibition of transfer from dendritic cells to T lymphocytes; type: cell-based
Description: (§6) In addition, tests for transfer of the virus, from the dendritic cells to autologous T lymphocytes, i.e. T lymphocytes originating from the same stem cells, were carried out.
(§7) For this, dendritic cells are transferred and incubated with each of the terpenic compositions and the virus. Next, after washing, autologous T lymphocytes are added in a ratio of one dendritic cell to five T lymphocytes. The concentration of viral proteins of the abovementioned type is then evaluated by means of the ELISA assay.
(§8) Dendritic cells express, at their surface, an adhesion protein, DC-SIGN, which forms a viral receptor capable of capturing HIV and of facilitating the infection of permissive cells via a “trans-infection” mechanism. This is because the DC-SIGN receptor can interact with the envelope of HIV and hold the virion in an infectious state so as to subsequently transmit it to permissive T lymphocytes in the adjacent lymph nodes.

HIV-1Bal (R5-tropic) [6] = test: as above; type: cell-based
Description: as §6, §7, §8

[7] = diluted to 1/200th, listed as Third
[8] = diluted to 1/200th, listed as third preparation
[9] = diluted to 1/2000th, listed as Fourth
[10] = diluted to 1/2000th, listed as fourth preparation

zinc aceto-salicylo-borneolate [Fifth preparation]
inhibition of infection of macrophages with strains of the R5-tropic group (HIV-1Bal (R5-tropic) [1]; diluted to 50%): more than 50%

zinc ascorbo-camphorate [Third preparation]
inhibition of dendritic cell infection, HIV-1NDK (X4-tropic) (HIV-1NDK (X4-tropic) [2]; [7]): >95%
inhibition of dendritic cell infection, HIV-1NDK (X4-tropic) (HIV-1NDK (X4-tropic) [2]; [8]): more than 95%
inhibition of dendritic cell infection, HIV-1Bal (R5-tropic) (HIV-1Bal (R5-tropic) [3]; [7]): >95%
inhibition of dendritic cell infection, HIV-1Bal (R5-tropic) (HIV-1Bal (R5-tropic) [3]; [8]): more than 95%
inhibition of macrophage infection, HIV-1NDK (X4-tropic) (HIV-1NDK (X4-tropic) [4]; [7]): >95%
inhibition of macrophage infection, HIV-1NDK (X4-tropic) (HIV-1NDK (X4-tropic) [4]; [8]): more than 95%
inhibition of macrophage infection, HIV-1NDK (X4-tropic) (HIV-1NDK (X4-tropic) [4]; diluted to 1/2000th): the same results
inhibition of macrophage infection, HIV-1Bal (R5-tropic) (HIV-1Bal (R5-tropic) [1]; [7]): >95%
inhibition of macrophage infection, HIV-1Bal (R5-tropic) (HIV-1Bal (R5-tropic) [1]; [8]): more than 95%
inhibition of macrophage infection, HIV-1Bal (R5-tropic) (HIV-1Bal (R5-tropic) [1]; diluted to 1/2000th): the same results
detergent activity with respect to the X4 strains (X4 strains): has a detergent activity
rendering the X4 strains noninfectious (X4 strains): capable of rendering the X4 strains noninfectious
inhibition of transfer from dendritic cells to T lymphocytes, HIV-1NDK (X4-tropic) (HIV-1NDK (X4-tropic) [5]; [7]): >95%
inhibition of transfer from dendritic cells to T lymphocytes, HIV-1NDK (X4-tropic) (HIV-1NDK (X4-tropic) [5]; [8]): more than 95%
inhibition of transfer from dendritic cells to T lymphocytes, HIV-1Bal (R5-tropic) (HIV-1Bal (R5-tropic) [6]; [7]): >95%
inhibition of transfer from dendritic cells to T lymphocytes, HIV-1Bal (R5-tropic) (HIV-1Bal (R5-tropic) [6]; [8]): more than 95%
inhibition of transfer from dendritic cells to T lymphocytes, HIV-1Bal (R5-tropic) (HIV-1Bal (R5-tropic) [6]; diluted to 1/2000th): the same results

zinc cinnamo-camphorate [Fourth preparation]
inhibition of dendritic cell infection, HIV-1NDK (X4-tropic) (HIV-1NDK (X4-tropic) [2]; diluted to 1/2000th): 0%
inhibition of dendritic cell infection, HIV-1Bal (R5-tropic) (HIV-1Bal (R5-tropic) [3]; diluted to 1/2000th): 0%
inhibition of macrophage infection, HIV-1NDK (X4-tropic) (HIV-1NDK (X4-tropic) [4]; [9]): >90%
inhibition of macrophage infection, HIV-1NDK (X4-tropic) (HIV-1NDK (X4-tropic) [4]; [10]): the same results
inhibition of macrophage infection, HIV-1Bal (R5-tropic) (HIV-1Bal (R5-tropic) [1]; [9]): >90%
inhibition of macrophage infection, HIV-1Bal (R5-tropic) (HIV-1Bal (R5-tropic) [1]; [10]): the same results
inhibition of transfer from dendritic cells to T lymphocytes, HIV-1NDK (X4-tropic) (HIV-1NDK (X4-tropic) [5]; diluted to 1/2000th): 0%
inhibition of transfer from dendritic cells to T lymphocytes, HIV-1Bal (R5-tropic) (HIV-1Bal (R5-tropic) [6]; diluted to 1/2000th): 0%
